Data reported in US7629503B2, “Δ-4 desaturases from Euglena gracilis, expressing plants, and oils containing PUFA” (BASF Plant Science GmbH, priority 2003, dated 2009).

system: Euglena gracilis Δ4-desaturase; assay: Substrate specificity: feeding fatty acids to yeast expressing the Δ-4-desaturase (pYES-EGD4-2), fatty acid analysis by GC; format: cell-based; conditions: transformed yeast (saccharomyces strain SC334, pYES-EGD4-2), 100 μM fatty acid substrate (67 μM for 16:1 Δ7), 2% galactose induction, 15° C. for 4 days
Experimental: Yeasts transformed with the plasmid pYES-EGD4-2 as in Example 4 were analyzed in the following way:
The yeast cells were grown in 1 ml of minimal medium with 0.2% raffinose for two days and then transferred into 5 ml of the same medium. This culture was grown at 30° C. for 6 h until the OD600 was 0.05. Then 100 μM of the fatty acid substrates (67 μM for 16:1 Δ7) were added, and the expression of the Δ-4-desaturase was induced by adding 2% galactose. The cells were then incubated at 15° C. for 4 days, harvested, washed with 100 mM NaHCO3 and employed for the fatty acid analysis by GC.
The substrate specificities were found by feeding the transformed yeast strains with different fatty acids (Tab. 1). Conversion of the fed fatty acids to their Δ4-desaturated products was then determined.

Structure (SMILES)	Conversion (in %) of the fed fatty acid to its Δ4-desaturated product
CCCCC/C=C\C/C=C\C/C=C\C/C=C\CCCCCC(=O)O [22:4 Δ7, 10, 13, 16]	28.7 (±2.5) %
CCCCCC/C=C\CCCCCCCC(=O)O [16:1 Δ9]	Not detectable
CCCCCCCCC=CCCCCCC(=O)O [16:1 Δ7]	7.4 (±0.8) %
CCCCC/C=C\C/C=C\C/C=C\CCCCCCC(=O)O [20:3 Δ8, 11, 14]	Not detectable
CCCCCCCCCCCCCCCCCC(=O)O [18:0]	Not detectable
CCCCCCCC/C=C\CCCCCCCC(=O)O [18:1 Δ9]	Not detectable
CCCCC/C=C\C/C=C\CCCCCCCC(=O)O [18:2 Δ9, 12]	Not detectable
CC/C=C\C/C=C\C/C=C\C/C=C\C/C=C\CCCCCC(=O)O [22:5 Δ7, 10, 13, 16, 19, docosapentaenoic acid]	29.7 (±2.8) %
CC/C=C\C/C=C\C/C=C\CCCCCC(=O)O [16:3 Δ7, 10, 13]	21.4 (±3.3) %
CCCCC/C=C\C/C=C\C/C=C\CCCCC(=O)O [18:3 Δ6, 9, 12]	Not detectable
CCCCCCCCCCCCCCCC(=O)O [16:0]	Not detectable
